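Dose response: 5 concentrations. Exposure: 48 h. Format: 96-well plates. Endpoint: linear interpolation; highest concentration if not reached. GI50 = concentration required for 50% inhibition of growth. Definition used: TGI = concentration required for complete inhibition of growth.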
How the values were obtained:
Test in all cases: NCI-60 cell line screen, 48 h
NCI-H23 lung = tested on: NCI-H23 lung
NCI-H460 lung = tested on: NCI-H460 lung
NCI-H522 lung = tested on: NCI-H522 lung
NCI/ADR-RES ovarian = tested on: NCI/ADR-RES ovarian
OVCAR-3 ovarian = tested on: OVCAR-3 ovarian
OVCAR-4 ovarian = tested on: OVCAR-4 ovarian
OVCAR-5 ovarian = tested on: OVCAR-5 ovarian
OVCAR-8 ovarian = tested on: OVCAR-8 ovarian
PC-3 prostate = tested on: PC-3 prostate
RPMI-8226 leukemia = tested on: RPMI-8226 leukemia
RXF 393 renal = tested on: RXF 393 renal
SF-268 CNS = tested on: SF-268 CNS
SF-295 CNS = tested on: SF-295 CNS
SF-539 CNS = tested on: SF-539 CNS
SK-MEL-2 melanoma = tested on: SK-MEL-2 melanoma
SK-MEL-28 melanoma = tested on: SK-MEL-28 melanoma
SK-MEL-5 melanoma = tested on: SK-MEL-5 melanoma
SK-OV-3 ovarian = tested on: SK-OV-3 ovarian
SN12C renal = tested on: SN12C renal
SNB-19 CNS = tested on: SNB-19 CNS
SNB-75 CNS = tested on: SNB-75 CNS
SR leukemia = tested on: SR leukemia
SW-620 colon = tested on: SW-620 colon
TK-10 renal = tested on: TK-10 renal
U251 CNS = tested on: U251 CNS
UACC-257 melanoma = tested on: UACC-257 melanoma
UACC-62 melanoma = tested on: UACC-62 melanoma
UO-31 renal = tested on: UO-31 renal

Cn1ccc(=O)c2c(O)c3ccccc3c(O)c21
GI50 (NCI-H23 lung): > 100 µM
TGI (NCI-H23 lung): > 100 µM
GI50 (NCI-H460 lung): > 69 µM
TGI (NCI-H460 lung): > 100 µM
GI50 (NCI-H522 lung): > 94 µM
TGI (NCI-H522 lung): > 100 µM
GI50 (NCI/ADR-RES ovarian): > 100 µM
TGI (NCI/ADR-RES ovarian): > 100 µM
GI50 (OVCAR-3 ovarian): > 100 µM
TGI (OVCAR-3 ovarian): > 100 µM
GI50 (OVCAR-4 ovarian): > 100 µM
TGI (OVCAR-4 ovarian): > 100 µM
GI50 (OVCAR-5 ovarian): > 100 µM
TGI (OVCAR-5 ovarian): > 100 µM
GI50 (OVCAR-8 ovarian): > 58.6 µM
TGI (OVCAR-8 ovarian): > 100 µM
GI50 (PC-3 prostate): > 26.6 µM
TGI (PC-3 prostate): > 100 µM
GI50 (RPMI-8226 leukemia): 34.5 µM
TGI (RPMI-8226 leukemia): > 100 µM
GI50 (RXF 393 renal): > 100 µM
TGI (RXF 393 renal): > 100 µM
GI50 (SF-268 CNS): > 100 µM
TGI (SF-268 CNS): > 100 µM
GI50 (SF-295 CNS): 64.3 µM
TGI (SF-295 CNS): > 100 µM
GI50 (SF-539 CNS): > 82.3 µM
TGI (SF-539 CNS): > 100 µM
GI50 (SK-MEL-2 melanoma): > 100 µM
TGI (SK-MEL-2 melanoma): > 100 µM
GI50 (SK-MEL-28 melanoma): > 100 µM
TGI (SK-MEL-28 melanoma): > 100 µM
GI50 (SK-MEL-5 melanoma): 18.3 µM
TGI (SK-MEL-5 melanoma): > 52.4 µM
GI50 (SK-OV-3 ovarian): > 94.2 µM
TGI (SK-OV-3 ovarian): > 100 µM
GI50 (SN12C renal): 78.1 µM
TGI (SN12C renal): > 100 µM
GI50 (SNB-19 CNS): > 40.2 µM
TGI (SNB-19 CNS): > 100 µM
GI50 (SNB-75 CNS): > 100 µM
TGI (SNB-75 CNS): > 100 µM
GI50 (SR leukemia): 44.5 µM
TGI (SR leukemia): > 100 µM
GI50 (SW-620 colon): 59.9 µM
TGI (SW-620 colon): > 100 µM
GI50 (TK-10 renal): > 94.9 µM
TGI (TK-10 renal): > 100 µM
GI50 (U251 CNS): > 100 µM
TGI (U251 CNS): > 100 µM
GI50 (UACC-257 melanoma): > 100 µM
TGI (UACC-257 melanoma): > 100 µM
GI50 (UACC-62 melanoma): > 88.6 µM
TGI (UACC-62 melanoma): > 100 µM
GI50 (UO-31 renal): > 100 µM
TGI (UO-31 renal): > 100 µM
